{"source": "patent EP1094830B1", "about": "“USE OF COMPOSITION COMPRISING AT LEAST ONE SUBSTANCE WITHIN THE GROUP GnRH-ANALOGUES FOR TREATMENT OF OBSESSIVE-COMPULSIVE DISORDER (OCD)” (Läkartjänster I Västsverige AB, priority 1998, dated 2005)", "key": {"OCD-symptoms [1]": {"system": "OCD-symptoms", "experiment": "Case study: treatment of a patient with a severe form of OCD", "assay_type": "in vivo, man", "settings": "earlier treatment of the same patient(s) with anti-androgenic drugs, before the GnRH-analogue", "method": "The GnRH-analogue triptorelin is available in a pharmaceutical preparation (Decapeptyl® Depot). In the use of this preparation, an injection is administered containing triptorelin embonate in a dose corresponding to 3.75 mg triptorelin. Injections with this dose are given intramuscularly. They should be repeated every fourth week from the first injection. […] A then person was referred to a psychiatric specialist clinic from another qualified psychiatrist for evaluation and treatment of a severe condition of OCD. […] The situation when the patient came to the clinic was that they had sickness pension since more than ten years. They lived alone in a small apartment which they hardly ever left. Obsessions and compulsive rituals occupied most of their time. They repeated against their will meaningless strings of words silently during several hours every day. They felt they had to read the newspaper according to certain ritual patterns; if they did anything wrong, they had to start again from the beginning. Sometimes, it took them the whole day to read the newspaper. […] Among other things, they placed their books so that the covers were strictly oriented along north-south lines. Their contacts with other persons were highly restraint and mainly limited to some relatives. […] The clinical diagnosis was that they suffered from a very serious form of OCD. […]"}, "[2]": {"system": "symptoms of androgenic hyperactivity", "experiment": "Case study: treatment of the patient's symptoms of androgenic hyperactivity", "assay_type": "in vivo, man", "settings": "same patient, before triptorelin", "method": "An endocrinological investigation was performed, based upon their symptoms of androgenic hyperactivity."}, "[3]": {"system": "obsessive-compulsive neurosis (nowadays called obsessive-compulsive disorder, OCD)", "settings": "cited from earlier work"}, "OCD-symptoms [4]": {"system": "OCD-symptoms", "experiment": "Case study: treatment of a patient with a severe form of OCD", "assay_type": "in vivo, man", "method": "The GnRH-analogue triptorelin is available in a pharmaceutical preparation (Decapeptyl® Depot). In the use of this preparation, an injection is administered containing triptorelin embonate in a dose corresponding to 3.75 mg triptorelin. Injections with this dose are given intramuscularly. They should be repeated every fourth week from the first injection.\nA detailed case study of the treatment of a patient with a severe form of OCD is disclosed in the following, as supporting evidence of the effect of the method.\nA then person was referred to a psychiatric specialist clinic from another qualified psychiatrist for evaluation and treatment of a severe condition of OCD.\nThe situation when the patient came to the clinic was that they had sickness pension since more than ten years. They lived alone in a small apartment which they hardly ever left. Obsessions and compulsive rituals occupied most of their time. They repeated against their will meaningless strings of words silently during several hours every day. They felt they had to read the newspaper according to certain ritual patterns; if they did anything wrong, they had to start again from the beginning. Sometimes, it took them the whole day to read the newspaper. […] Among other things, they placed their books so that the covers were strictly oriented along north-south lines. Their contacts with other persons were highly restraint and mainly limited to some relatives.\nThe clinical diagnosis was that they suffered from a very serious form of OCD. They were also found to be intelligent without any signs of any other mental illness or personality disorder. Thus, it was a clearly defined case of OCD.\nDuring long periods of time the patient had been treated with the drugs which presently are considered to have the best effect against OCD. In the treatment of the patient they had also been given supportive psychotherapy.\nIn order to overcome this, treatment with the long-acting GnRH-analogue triptorelin (Decapeptyl® Depot) was given every fourth week as deep intramuscular depot injections with a dose corresponding to 3.75 mg triptorelin in each injection."}, "[5]": {"settings": "after another two months (four months in all), 3.75 mg intramuscular every fourth week"}}, "note": "Entries after “also recorded” stand apart in the source; their conditions may differ."}
{"molecule": "CC(=O)O[C@]1(C(C)=O)CC[C@H]2[C@@H]3C=C(Cl)C4=CC(=O)[C@@H]5C[C@@H]5[C@]4(C)[C@H]3CC[C@@]21C", "note": "[cyproterone acetate]", "values": [{"measurement": "effect on OCD", "setting": "OCD-symptoms [1]", "value": "without success; also recorded: without any major improvement; also recorded: without any obvious effect on their OCD"}, {"measurement": "effect on symptoms of androgenic hyperactivity", "setting": "[2]", "value": "without any significant effects"}, {"measurement": "effect in treatment of obsessive-compulsive neurosis", "setting": "[3]; a few patients, Casas et al. 1986", "value": "effective"}, {"measurement": "effect on OCD", "setting": "[3]; later investigations by other researchers", "value": "failed to demonstrate any effect"}]}
{"molecule": "triptorelin", "values": [{"measurement": "effect on OCD-symptoms", "setting": "OCD-symptoms [4]; [5]", "value": "dramatically better"}, {"measurement": "obsessive thoughts", "setting": "OCD-symptoms [4]; [5]", "value": "all obsessive thoughts had disappeared"}, {"measurement": "recovery from very severe form of OCD", "setting": "OCD-symptoms [4]; after three months of treatment", "value": "substantially recovered"}, {"measurement": "effect on OCD-symptoms", "setting": "OCD-symptoms [4]; after two months treatment, 3.75 mg intramuscular every fourth week", "value": "began to feel better"}, {"measurement": "effect on OCD-symptoms", "setting": "OCD-symptoms [4]; initially during treatment, 3.75 mg triptorelin deep intramuscular depot injection every fourth week", "value": "accentuation of the patients OCD-symptoms"}]}
